Reference: patent US4621077A, “Pharmacologically active biphosphonates, process for the preparation thereof and pharmaceutical compositions therefrom” (Istituto Gentili S.p.A., priority 1982, dated 1986)
Where two headings read alike, the source gives them in different places.

Legend:
[1] = test system: skull cells (lactate production); assay: cells; assay type: cell-based, Wistar rats; conditions: for activity at 2.5 µM / activity at 25 µM / activity at 250 µM: Rattus norvegicus, 16 h, read-out: Effect on the production of lactate ± S.E.M.
Procedure: (§1) Cellular culture: the cells are cultured according to the method described by Fast et al, (Biochem. J. 172, 97-107 (1978)). By way of summary, the skulls removed from Wistar rats, one day old, are digested with collagenase. The cells set free are placed on a plate with concentration of 200,000 cells per cc of medium in disks "clusters" suitable for culture, the plates having 24 wells of 1.6 cm in diameter containing 0.5 cc of medium. The cells are cultivated in the essential minimum medium containing 10% of foetal calf serum in an atmosphere of 5% CO2 at 37° up to the eighth day. The bisphosphonates are added on the first day up to the end of the experiment. The medium is changed on the first, fourth and seventh day.
On the seventh day, the medium is changed and the cells are incubated for 16 hours. The lactate produced during this period is measured in an extract in HClO4 of the medium using lactatodehydrogenase.

[2] = test system: bone reabsorption (metaphyseal bone density); assay: Metaphyseal bone density / inhibition of bone reabsorption in rats treated for 7 days; assay type: in vivo; conditions: 7 days, rats
in vivo = conditions: mouse, Swiss mice, read-out: DL50 (the source's name)
Procedure: For this study Swiss mice, both male and female, have been utilized: during the experiment, the animals are fed according to the method with Altromin in the form of tablets. For the oral and intraperitoneal administration, there are used 5% gum arabic solutions while saline solutions of pH 4 are used for the intravenous injections.
The preliminary values of DL50 are calculated according to a graphic method.

[3] = for product Ca++ × Pi in solution after incubation: 37° C., two days, control 29, prior to incubation 114.7
Procedure: A model system is used to evaluate the ability of the phosphonates to inhibit the formation of crystals in inorganic solutions. Three solutions are prepared according to Fleisch.
The pH is brought to 7.4 by means of potassium hydroxide. The concentration of Ca^++ was 6.7 mg%, a level similar to the calcium in blood which has been subjected to untrafiltration and the concentration of the inorganic phosphate Pi give a product Ca^++ ×Pi=80. The solution was analyzed for Ca^++ and Pi and was distributed in Erlenmeyer flasks 12 cc each. The flasks were divided in groups as follows:
and then they are incubated under stirring at 37° C. for two days.
At the end of incubation, the solutions are passed through "millipore filters" for the purpose of retaining the ctystals which are formed during the incubation; the filtrate then is analyzed for Ca^++ and Pi. The results are also reported in Table 2 as the product of Ca^++ x Pi in the solution at the end of the experiment.

skull cells = assay: cells; assay type: cell-based, Wistar rats; conditions: for activity at 2.5 µM / activity at 25 µM / activity at 250 µM: Rattus norvegicus, read-out: Effect on the cellular number ± S.E.M.
Procedure: as §1
The cells are counted with a Coulter counter after they have been set free from the disks by digestion with a mixture of collagenase and trypsin.

[4] = test system: bone reabsorption and mineralization (tibia, trabecular metaphysis); assay type: in vivo, Wistar rats
Procedure: Groups of five Wistar rats of weight 180-200 grams are treated for a period of seven days with 0.1, 1.0 and 10 mg of P/kg of the following biphosphonic acids:
The animals kept as a control were administered the solvent with NaCl. All the treatments were carried out by the subcutaneous route. […] The animals were fed with Altromine 1314 containing 1.1 g/100 g P and 250 IU/100 g of vitamin D3. On the eighth day, the animals were killed and the tibia was removed and fixed in 50% ethanol. The tibiae were then dehydrated in increasing concentration of ethanol and allowed to soak in methylmethacrylate after the addition of Plastoid N. Frontal sections were removed and cut to a thickness of 70-80 μm and then the sections were submitted to microradiography. This procedure permitted to evaluate the density of the mineral in the trabecular metaphysis according to the method of Shenk et al., Calc. Tiss. Res. 11, 196-214, 1973).
One animal per group has been evaluated.

O=P(O)(O)C(Cl)(Cl)P(=O)(O)O [Cl2 MBP, dichloromethanebiphosphonic acid]
effect on the production of lactate, in words [1]: diminishes it
activity at 2.5 µM ([1]; 2.5 μM): 87.5 ± 4%
activity at 25 µM ([1]; 25 μM): 67.1 ± 2.8%
activity at 250 µM ([1]; 250 μM): 16.9 ± 2.2%
metaphysical density ([2]; 0.1 mg P/kg s.c., s.c. NaCl controls 29.72): 38.21 % volume of calcified tissue
metaphysical density ([2]; 1.0 mg P/kg s.c., s.c. NaCl controls 29.72): 47.00 % volume of calcified tissue
metaphysical density ([2]; 2.0 mg P/kg p.o., p.o. NaCl controls 28.45): 31.20 % volume of calcified tissue
metaphysical density ([2]; 10.0 mg P/kg s.c., s.c. NaCl controls 29.72): 52.65 % volume of calcified tissue
LD50 (in vivo; ip): 750 mg/kg
LD50 (in vivo; iv): 130 mg/kg
LD50 (in vivo; po, os): > 2000 mg/kg
product Ca++ × Pi in solution after incubation ([3]; 0.5 μM): 44.0
product Ca++ × Pi in solution after incubation ([3]; 2.5 μM): 60.4
product Ca++ × Pi in solution after incubation ([3]; 5.0 μM): 73.6
effect on the number of cells, in words (skull cells): causes a decrease in the number of cells
activity at 2.5 µM (skull cells; 2.5 μM): 103 ± 0.7%
activity at 25 µM (skull cells; 25 μM): 86.4 ± 2.1%
activity at 250 µM (skull cells; 250 μM): 54.5 ± 1.9%

O=P(O)(O)C(F)(F)P(=O)(O)O [F2 MBP, difluoromethanebiphosphonic acid]
effect on the production of lactate, in words [1]: no effect
activity at 2.5 µM [1]: 112 ± 4.4%
activity at 25 µM [1]: 106 ± 3.9%
activity at 250 µM [1]: 99.7 ± 4.7%
effect on mineralization, in words ([4]; 10 mg of P/kg / high dosage where stated): no effect on the bone reabsorption or on the bone mineralization
effect on bone reabsorption, in words ([4]; rat, in vivo): no effect on the bone reabsorption
LD50 (in vivo; ip): 450 mg/kg
LD50 (in vivo; iv): 70 mg/kg
LD50 (in vivo; po, os): > 2000 mg/kg
product Ca++ × Pi in solution after incubation ([3]; 0.5 μM): 44.6
product Ca++ × Pi in solution after incubation ([3]; 2.5 μM): 58.5
product Ca++ × Pi in solution after incubation ([3]; 5.0 μM): 72.0
inhibitory activity on the formation and growth of crystals of apatite ([3]; in vitro): inhibits the growth in vitro of the crystals of apatite
effect on the number of cells, in words (skull cells): no effect or a very small effect
activity at 2.5 µM (skull cells): 88.1 ± 1.4%
activity at 25 µM (skull cells): 92.4 ± 1.9%
activity at 250 µM (skull cells): 99.3 ± 2%
